Test results taken from the supplement of paper PMC13380429.

Tests used:
Conditions in all cases: 72 h
[1] = system: Caco-2; assay: relative viability EC50 (midpoint between 100% and the lowest measured viability); higher = less toxic
[2] = system: HepG2; assay: as above
[3] = system: Calu-3; assay: as above
[4] = system: Vero E6; assay: as above
[5] = system: Caco-2; assay: drug sensitivity score (DSS) for viability; higher = more toxic; extreme values may be limits of the assay
[6] = system: HepG2; assay: as above
[7] = system: Calu-3; assay: as above
[8] = system: Vero E6; assay: as above
[9] = system: Caco-2; assay: cell viability relative to DMSO; higher = less toxic
[10] = system: HepG2; assay: as above
[11] = system: Calu-3; assay: as above
[12] = system: Vero E6; assay: as above
[13] = system: U2OS; assay: relative viability EC50 (midpoint between 100% and the lowest measured viability); higher = less toxic
[14] = system: U2OS; assay: drug sensitivity score (DSS) for viability; higher = more toxic; extreme values may be limits of the assay
[15] = system: U2OS; assay: cell viability relative to DMSO; higher = less toxic

Row | Compound | relative viability EC50 [1] [µM] | relative viability EC50 [2] [µM] | relative viability EC50 [3] [µM] | relative viability EC50 [4] [µM] | drug sensitivity score [5] | drug sensitivity score [6] | drug sensitivity score [7] | drug sensitivity score [8] | cell viability ([9]; 1 nM) [%] | cell viability ([9]; 10 nM) [%] | cell viability ([9]; 100 nM) [%] | cell viability ([9]; 1000 nM) [%] | cell viability ([9]; 10000 nM) [%] | cell viability ([10]; 1 nM) [%] | cell viability ([10]; 10 nM) [%] | cell viability ([10]; 100 nM) [%] | cell viability ([10]; 1000 nM) [%] | cell viability ([10]; 10000 nM) [%] | cell viability ([11]; 1 nM) [%] | cell viability ([11]; 10 nM) [%] | cell viability ([11]; 100 nM) [%] | cell viability ([11]; 1000 nM) [%] | cell viability ([11]; 10000 nM) [%] | cell viability ([12]; 1 nM) [%] | cell viability ([12]; 10 nM) [%] | cell viability ([12]; 100 nM) [%] | cell viability ([12]; 1000 nM) [%] | cell viability ([12]; 10000 nM) [%] | relative viability EC50 [13] [µM] | drug sensitivity score [14] | cell viability ([15]; 1 nM) [%] | cell viability ([15]; 10 nM) [%] | cell viability ([15]; 100 nM) [%] | cell viability ([15]; 1000 nM) [%] | cell viability ([15]; 10000 nM) [%]
1 | COc1ccc(CC(=O)NC(/N=C(\NC#N)Nc2cccc3ncccc23)C(C)(C)C)cc1OC (stereo not drawn) | > 10 | > 10 | > 10 | > 10 | 0 | 0 | 0 | 0 | 101 | 97.8 | 94.1 | 101 | 99.7 | 107 | 95.7 | 93.8 | 97.5 | 106 | 113 | 96.5 | 95.6 | 109 | 103 | 103 | 97 | 91.1 | 96.9 | 99.8 | – | – | – | – | – | – | –
2 | C[C@@H]1COC(Nc2ccc3ncnc(Nc4ccc(OCc5nccs5)c(Cl)c4)c3c2)=N1 | – | > 10 | 0.184 | – | 3.4 | 0 | 13.2 | 5.6 | 95.7 | 104 | 97.2 | 81.6 | 67.7 | 100 | 100 | 94.8 | 92.3 | 98.8 | 103 | 107 | 81.8 | 41.3 | 36.1 | 107 | 99.5 | 94 | 70.7 | 67 | > 10 | 0 | 97.8 | 96.7 | 98.9 | 93.3 | 90
3 | Cc1c(C2CCN(CCc3ccccc3)CC2)noc1-c1ccc(Cl)cc1 | – | – | > 10 | > 10 | 1.5 | 1.9 | 0.3 | 0 | 103 | 106 | 99.9 | 98.8 | 68.6 | 102 | 107 | 96.5 | 95.8 | 71.9 | 99.9 | 104 | 101 | 108 | 80.9 | 105 | 99.4 | 103 | 98.3 | 90.3 | > 10 | 0 | 102 | 98.7 | 101 | 97.3 | 96.6
4 | Cc1cc(CCC[C@H](CC(=O)NO)C(=O)N[C@H](C(=O)N[C@H](C)c2ccccc2)C(C)(C)C)ccc1-c1ccccc1 | – | 3.6 | > 10 | – | 2.6 | 3.1 | 1.1 | 1.9 | 105 | 95.2 | 110 | 99.4 | 51.4 | 110 | 116 | 99.6 | 106 | 35.1 | 101 | 90.9 | 91.8 | 94.8 | 77.5 | 103 | 104 | 99.9 | 97 | 67.5 | 3.12 | 2.9 | 99.1 | 102 | 97.3 | 99.6 | 46.7
5 | O=C(Cc1ccc(Cl)c(Cl)c1)N1CCCC[C@@H]1CN1CCCC1 | > 10 | > 10 | > 10 | > 10 | 0 | 0.4 | 0 | 0 | 85.2 | 97 | 104 | 95.5 | 102 | 95.8 | 93.5 | 99.1 | 89.8 | 83.5 | 100 | 105 | 92.1 | 109 | 103 | 102 | 104 | 99.5 | 105 | 98.7 | – | – | – | – | – | – | –
6 | Oc1cc2c(cc1O)C(c1ccccc1)CNCC2 (stereo not drawn) | – | > 10 | > 10 | > 10 | – | 0 | 2.2 | 0 | – | – | – | – | – | 110 | 104 | 108 | 91.8 | 107 | 77.4 | 103 | 78.6 | 99.6 | 78 | 104 | 98.2 | 103 | 96.9 | 106 | > 10 | 0 | 102 | 102 | 97.3 | 104 | 99
7 | Cc1c(C)c2c(c(C)c1O)CCC(C)(C)O2 [APC-100] | – | > 10 | > 10 | > 10 | 0.6 | 0 | 0 | 0 | 90.4 | 118 | 100 | 131 | 71.8 | 120 | 88.6 | 120 | 95.7 | 99.2 | 96.6 | 95.1 | 100 | 104 | 100 | 93.5 | 85.4 | 99.1 | 88.1 | 102 | > 10 | 0 | 91.4 | 100 | 94.3 | 100 | 102
8 | O=C(NOCCO)c1ccc2cncn2c1Nc1ccc(I)cc1F [GDC-0623] | – | 0.0088 | 0.034 | 0.017 | 13.8 | 31.7 | 19.7 | 16.8 | 93.5 | 79.5 | 64.6 | 61.8 | 58.2 | 91.8 | 51.2 | 23.7 | 19.6 | 12.4 | 102 | 78.5 | 52.4 | 36.4 | 31.1 | 98.4 | 81.9 | 55.5 | 49.9 | 49.3 | 0.916 | 8.6 | 95.1 | 92.6 | 93.4 | 62 | 25.5
9 | COc1cc2nc(C3CC3)nc(N3CCN(c4ccccc4OC)CC3)c2cc1OC [ML314] | – | – | > 10 | – | 2.9 | 3.8 | 1.6 | 3.1 | 100 | 91.5 | 97.9 | 94.8 | 59 | 102 | 92.4 | 100 | 91.6 | 54.1 | 96.6 | 101 | 102 | 92.7 | 78.3 | 96.9 | 109 | 95 | 87.6 | 62.9 | > 10 | 0 | 96.5 | 97.4 | 91.5 | 98.2 | 87.1
10 | C=C(C)[C@@H]1CC[C@]2(CO)CC[C@]3(C)[C@H](CC[C@@H]4[C@@]5(C)CC[C@H](O)C(C)(C)[C@@H]5CC[C@]43C)[C@@H]12 [NSC-4644] | – | > 10 | > 10 | > 10 | 10.8 | 2.9 | 0 | 0 | 101 | 73.1 | 75.8 | 74.1 | 91.1 | 112 | 99.1 | 96.1 | 81.2 | 89.8 | 103 | 103 | 102 | 106 | 90.3 | 84.1 | 95.4 | 96.3 | 92 | 106 | > 10 | 0 | 96.6 | 95.6 | 103 | 92 | 98.4
11 | O=C(c1c(F)ccc(NS(=O)(=O)N2CC[C@@H](F)C2)c1F)c1c[nH]c2ncc(-c3cnc(C4CC4)nc3)cc12 [PLX8394] | – | > 10 | > 10 | > 10 | 1.9 | 0.6 | 0 | 0 | 102 | 99.2 | 94.4 | 91.7 | 71.8 | 91 | 90.5 | 106 | 101 | 79.1 | 105 | 105 | 83.6 | 104 | 114 | 102 | 96.6 | 104 | 98.8 | 113 | > 10 | 0 | 96 | 105 | 104 | 107 | 93.3
12 | CC(C)=CCC[C@](C)(O)[C@H]1CC[C@]2(C)[C@@H]1[C@H](O)C[C@@H]1[C@@]3(C)CC[C@H](O)C(C)(C)[C@@H]3CC[C@]12C [S-111] | > 10 | – | > 10 | > 10 | 0 | – | 0 | 0 | 106 | 98.3 | 103 | 104 | 99.8 | – | – | – | – | – | 95.5 | 95.4 | 89.1 | 97.2 | 93 | 104 | 102 | 98.3 | 105 | 100 | – | – | – | – | – | – | –
13 | N[C@@H](CSC(c1ccccc1)(c1ccccc1)c1ccccc1)C(=O)O [S-trityl-L-cysteine] | – | 3.21 | > 10 | 3.07 | 2.1 | 3.2 | 0.5 | 3 | 96.6 | 100 | 85.9 | 98.4 | 61.4 | 83.6 | 93 | 104 | 100 | 40.5 | 105 | 104 | 94.2 | 92.5 | 84.6 | 98.5 | 100 | 102 | 99.2 | 45 | 3.25 | 2.7 | 101 | 104 | 94.6 | 101 | 48.5
14 | CN(C)C(=O)C(=O)c1cn(C)c2cc(Cl)c(C(=O)N3CCC(Cc4ccc(F)cc4)CC3)cc12 [SX-011] | – | > 10 | > 10 | > 10 | 2.3 | 0.1 | 0 | 0.1 | 93.9 | 96.3 | 98.3 | 93.5 | 70.4 | 112 | 102 | 104 | 102 | 86.5 | 94.6 | 108 | 116 | 97.3 | 91.2 | 110 | 94.6 | 100 | 93.2 | 89.2 | > 10 | 0 | 99.1 | 100 | 97.1 | 102 | 91.2
15 | CCOc1cc(N2CCC(O)CC2)ccc1Nc1ncc2c(n1)N(C)c1ccccc1C(=O)N2C [XMD8-92] | > 10 | – | > 10 | 2.26 | 0.9 | 0.8 | 0.5 | 4.3 | 96.1 | 93 | 90 | 89.8 | 84.6 | 101 | 99.4 | 102 | 104 | 74.4 | 90.2 | 112 | 98.1 | 109 | 77.5 | 99.7 | 93.2 | 99.7 | 93.5 | 41.2 | – | 1.8 | 92.7 | 105 | 93.6 | 94.6 | 73.3
